Patent US5478723A, “Method and apparatus for determining the role of cytochrome P450 and related enzymes in the metabolism of drugs and other chemicals” (priority 1993, dated 1995)
Entries after “also recorded” stand apart in the source; their conditions may differ.

Key:
[1] = tested on: CYP2D6 enzyme; settings: background or known; cited from earlier work
[2] = tested on: CYP2CMp; settings: in vivo; cited from earlier work
[3] = tested on: liver; settings: in vivo; cited from earlier work
[4] = tested on: CYP1A2 enzyme; settings: known; cited from earlier work
[5] = tested on: cytochrome P450; settings: in vivo; cited from earlier work
[6] = tested on: CYP2A6 enzyme; settings: cited from earlier work
[7] = tested on: CYP2D6; settings: cited from earlier work
[8] = tested on: CYP3A enzymes; settings: cited from earlier work
[9] = tested on: labor at term; experiment: Clinical trials of sparteine for inducing labor at term; type: in vivo, human; settings: of all Caucasians; expected from CYP2D6 deficiency
Description: The drug was not recommended for clinical use because these side effects were unpredictable and occurred at doses of […], which were well tolerated by other patients.

[10] = tested on: labor at term; settings: cited from earlier work
[11] = administered with ketoconazole or erythromycin; cited from earlier work

COc1ccc2c(c1)[C@]13CCCC[C@@H]1[C@H](C2)N(C)CC3 (stereo in doubt) [dextromethorphan]
enzyme which metabolizes the drug [1]: metabolized by the CYP2D6 enzyme

CCC1(c2ccccc2)NC(=O)N(C)C1=O (stereo not drawn) [Mephenytoin]
enzyme which metabolizes the drug [2]: metabolized by CYP2CMp

CC[C@@]1(c2ccccc2)NC(=O)N(C)C1=O [S-mephenytoin]
poor metabolizers among Caucasians [2]: less than 5%
poor metabolizers among Japanese subjects [2]: about 20%

CC(=O)Nc1ccc(O)cc1 [acetaminophen]
origin of liver toxicity [3]: due to a toxic metabolite that is generated by cytochrome P450

Cn1c(=O)c2c(ncn2C)n(C)c1=O [caffeine]
enzyme which metabolizes the drug [4]: metabolized by the CYP1A2 enzyme

CN/C(=N/CCSCc1nc[nH]c1C)NC#N [cimetidine]
effect on cytochrome P450 activity [5]: depresses P450 activity

O=c1ccc2ccccc2o1 [coumarin]
enzyme which metabolizes the drug [6]: metabolized by the CYP2A6 enzyme

N=C(N)N1CCc2ccccc2C1 [debrisoquine]
poor metabolizers among Caucasians ([7]; Caucasians): 5-10%
enzyme which metabolizes the drug ([7]; in vivo): metabolized by CYP2D6

CC(=O)N1CCN(c2ccc(OCC3COC(Cn4ccnc4)(c4ccc(Cl)cc4Cl)O3)cc2)CC1 (stereo not drawn) [ketoconazole]
inhibition of CYP3A enzymes [8]: potent inhibitors of the CYP3A enzymes

CCC1(c2ccccc2)C(=O)NC(=O)NC1=O [phenobarbital]
effect on cytochrome P450 activity [5]: increase cytochrome P450 activity
effect on metabolism of contraceptive steroids [5]: increased rate of metabolism of contraceptive steroids

CO[C@H]1/C=C/O[C@@]2(C)Oc3c(C)c(O)c4c(O)c(c(/C=N/N5CCN(C)CC5)c(O)c4c3C2=O)NC(=O)/C(C)=C\C=C\[C@H](C)[C@H](O)[C@@H](C)[C@@H](O)[C@@H](C)[C@H](OC(C)=O)[C@@H]1C [rifampin]
effect on cytochrome P450 activity [5]: increase cytochrome P450 activity
effect on metabolism of contraceptive steroids [5]: increased rate of metabolism of contraceptive steroids

C1CCN2C[C@@H]3C[C@@H](CN4CCCC[C@@H]34)[C@H]2C1 [sparteine]
expected poor metabolizers [9]: 5-10%
potency for inducing labor at term ([10]; clinical trials, United States, late 1950's): as potent as oxytocin
patients with dramatically increased duration and intensity of action ([10]; of all patients tested): about 7%
patients with exaggerated response ([10]; patients administered during clinical trials): 7%
side effects (exaggerated response) ([10]; some patients): prolonged uterine contraction and abnormally rapid labor; also recorded: caused death of the fetus

CC(C)(C)c1ccc(C(O)CCCN2CCC(C(O)(c3ccccc3)c3ccccc3)CC2)cc1 (stereo not drawn) [terfenadine]
cardiac adverse reaction [11]: Torsades de Points
